From patent publication US8822413B2, “Bifunctional hormone having alpha-MSH activity and natriuretic peptide activity and uses thereof” (Theratechnologies Inc., priority 2007, dated 2014)
Bridge positions count the residues as written; N and C are the ends. Square brackets hold non-standard residues; d marks the D form. Peptide text beside a SMILES is read from it.

Assays:
Sprague-Dawley (SD) rats = assay: Effect on angiotensin II-induced hypertension in SD rat; assay type: in vivo; conditions: Ang II infusion, FIG. 2
From the text: BNP (Natrecor®) was approved by the FDA for lowering blood pressure in hypertensive crisis. Its natural homolog, ANP, was also shown to rapidly reduce blood pressure and is useful as a therapeutic in hypertensive crisis. Activation of renin-angiotensin system is implicated in several medical indications involving hypertension. Therefore, a rat model in which blood pressure was raised with the continuous infusion of angiotensin II was used, and the potency/efficacy of native ANP (peptide #2 in the figures) and the bifunctional hormone of SEQ ID NO: 33 (peptide #33 in the figures) to reduce blood pressure was tested following intravenous bolus injections of the peptides in SD rats.
Animals. Sprague-Dawley (SD) rats (male, weighing from 300 to 330 g) were obtained from Charles River Inc. Animals were maintained on standard laboratory chow under a 12:12 light:dark cycle.
Surgical preparation. The rats were anesthetized with isoflurane 2.5% for the duration of the experiment. Animals were placed under radiant warmer to keep the temperature at 37.5° C. The carotid artery was catheterized (Polyethylene™ Tubing PE90) for continuous arterial blood pressure recording with a pressure transducer (Statham) connected to a multichannel recorder (TA240 Gould). […] During this period, the stability of blood pressure was assessed. […]

CD11b/c, KIM-1 and IL-1β = assay: Western blot of inflammatory and tubular injury markers in kidneys after renal ischemia; assay type: in vivo, rat; conditions: 15 μg/kg/h for 24 h, renal clamping 30 min, FIG. 6
Protocol: Bifunctional hormone #33 was infused at an infusion rate of 15 μg/kg/h for 24 h using Alzet™ minipumps. The proteins were identified with specific antibodies. (A) Western blot. (B) Histograms showing the relative abundance of the markers.
Renal ischemia elicits increased expression of inflammatory markers such as IL-1, IL-18, Tumor Necrosis Factor alpha (TNF-α) and CD11b (neutrophil marker; evidence of neutrophil infiltration of the tissue) as well as tubular epithelial markers such as KIM-1, NGAL and NAG. There is considerable interest in these markers since these markers are expressed earlier than the observed rise in serum creatinine levels. Therefore, diagnosis of acute kidney injury based on the markers allows for earlier treatment of the patients which may produce better outcomes in terms of dialysis need and mortality. The effect of the bifunctional hormone #33 on the expression of inflammatory and tubular injury markers was assessed using the animal model described in Example 5.
Preparation of dosing solutions. Peptide #33 was infused for 24 h at an infusion rate of 15 μg/Kg/h using Alzet™ minipumps.
Western blotting. Fresh kidneys were rapidly dissected and homogenized with a tissue homogenizer in ice cold lysis buffer: 20 mM Tris, 135 mM NaCl, 1% NP-40™, 0.1% SDS, 10% glycerol containing Complete-Mini Protease Inhibitor Cocktail™ (Roche). Following a 15-min incubation on ice, samples were centrifuged at 13,000 rpm for 5 min at 4° C. and the supernatants containing solubilized protein extracts were collected. Protein samples (40 ug protein) were resolved on 10% SDS polyacrylamide gel electrophoresis and transferred to PVDF membranes (Amersham, Pharmacia). Non-specific binding was eliminated by incubating membranes for 1 h at room temperature in a solution of 5% non-fat milk in TBST (10 mM Tris, 150 mM NaCl, 0.2% Tween-20). […]

## CC[C@H](C)[C@@H]1NC(=O)[C@H](CCCNC(=N)N)NC(=O)[C@H](CC(=O)O)NC(=O)[C@H](CCSC)NC(=O)[C@H](CCCNC(=N)N)NC(=O)CNC(=O)CNC(=O)[C@H](Cc2ccccc2)NC(=O)[C@@H](NC(=O)[C@H](CCSC)NC(=O)[C@@H]2CCCN2C(=O)[C@H](CCCCN)NC(=O)CNC(=O)[C@H](Cc2c[nH]c3ccccc23)NC(=O)[C@H](CCCNC(=N)N)NC(=O)[C@@H](Cc2ccccc2)NC(=O)[C@H](Cc2c[nH]cn2)NC(C)=O)CSSC[C@@H](C(=O)N[C@@H](CC(N)=O)C(=O)N[C@@H](CO)C(=O)N[C@@H](Cc2ccccc2)C(=O)N[C@@H](CCCNC(=N)N)C(=O)N[C@@H](Cc2ccc(O)cc2)C(N)=O)NC(=O)CNC(=O)[C@H](CC(C)C)NC(=O)CNC(=O)[C@H](CO)NC(=O)[C@H](CCC(N)=O)NC(=O)[C@H](C)NC(=O)CNC1=O [SEQ ID NO: 33, Ac-H-f-R-W-G-K-P-M-[C-F-G-G-R-M-D-R-I-G-A-Q-S-G-L-G-C]-N-S-F-R-Y-NH2] (Ac-H[dF]RWGKPMCFGGRMDRIGAQSGLGCNSFRY-NH2; disulfide 9-25)
Sprague-Dawley (SD) rats; iv bolus doses of 400 μg/kg and above
  effect on blood pressure raised by angiotensin II: effect similar to that of ANP
Sprague-Dawley (SD) rats; iv bolus doses of up to 300 μg/kg
  effect on blood pressure raised by angiotensin II: did not induced hypotension
CD11b/c, KIM-1 and IL-1β
  expression of CD11b/c (neutrophil marker) in kidney: reduced the expression
  expression of IL-1β (inflammatory cytokine) in kidney: reduced the expression
  expression of KIM-1 (tubular injury marker) in kidney: reduced the expression
